In patent US20150374705A1, “Substances for treatment or relief of pain” (Shanghai Institues for Biological Sciences, priority 2012, published 2015):
“Also recorded” adds a separate entry of the source. Read-outs that look alike come from different tables or passages of the source.

Columns and labels:
[1] = tested on: SNI model rats (neuropathic pain); experiment: Spared nerve injury (SNI) model, neuropathic pain, mechanical pain threshold; type: in vivo; conditions: rat; for Suppression of neuropathic pain (nociceptive threshold): 3 mg/kg injection, 0.5-24 hours after administration; for Suppression of neuropathic pain (nociceptive threshold) / Tolerance on continuous administration: 14 days after SNI; for Tolerance on continuous administration: continuous injection for 6 days, measured 1-3 hours after administration
Outline: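 Male SD rats (200-250 g, n=6) with spared nerve injury (tibial and common peroneal ligated and cut, sural spared) were tested blind. Von Frey filaments (1-50 g) on the plantar paw gave the 50% withdrawal threshold. Compounds in 70% PEG400 were injected at 2-3 mg/kg; MRK016-M3 in 90% PEG400 was given orally at 0.3-10 mg/kg; unpaired t-test.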

[2] = target: T1, Human recombinant GABAA receptor containing α2 subunit (α2, β3, γ2) (Homo sapiens, UniProt P18507+P47869); experiment: Competitive radioligand binding ([3H]Ro-0151788) on membranes of 293 cells, Ki; conditions: human recombinant GABAA subtype containing α2; read-out: Affinity, nM (α2)
T1 construct: expressed in transfected cells; host or cells: 293 cell line
Protocol: (§1) Different subunits of GABAA receptor were expressed in cell lines, including human kidney epithelial cell line, 293 cell line or L(tk−) cell line. The cells were cultured in medium, and such cells were used as the cellular model for screening drugs to suppress pain. a subunit, β subunit and γ subunit are indispensable for one complete functional GABAA receptor.
In this example, the inventors established the following cellular models:
(b) simultaneously expressing α1 subunit (GenBank accession number: NM_001127648.1), β3 subunit and γ2 subunit in 293 cell line, forming the GABAA receptor containing α1 subunit; • (c) simultaneously expressing α2 subunit (for the protein sequence, see GenBank accession number NM_000813.2), β3 subunit and γ2 subunit in 293 cell line, forming the GABAA receptor containing α2 subunit;
Each of the (a) to (d) above could form a GABAA receptor with complete function.
Then, the cellular membrane was extracted and the protein concentration was measured. The competitive binding of the substances to be measured and radiolabelled compounds (e.g. 1 nM [^3H]Ro-0151788) were detected respectively to calculate the Ki value of the substances to be measured, see the method described in literature (Ballard T M et al., RO4938581, a novel cognitive enhancer acting at GABAA alpha5 subunit-containing receptors. Psychopharmacology (Berl). 2009 January; 202(1-3): 207-23). If the binding inhibition constant Ki (nM) of α5-GABAA receptor with the candidate substances in experimental group is less than the Ki of the receptor containing other a subunit (α1 subunit, α2 subunit or α3 subunit), then the candidate substance is a potential drugs for preventing, relieving or treating pain. Many methods can be used by those skilled in the art to evaluate the binding capacity of the ligand of α5-GABAA receptor to the α5-GABAA receptor, including but not limiting to the method above.

[3] = tested on: CFA induced inflammatory pain model rats (mechanical pain); experiment: CFA induced inflammatory pain model, mechanical pain threshold; type: in vivo; conditions: rat
[4] = human, Phase II, cited from earlier work
[5] = target: T2, Human recombinant GABAA receptor containing α3 subunit (Homo sapiens, UniProt P18507+P34903); experiment: Electrophysiological inverse agonist efficacy on GABA-induced current; type: cell-based; conditions: change of GABA-induced current; negative = inhibition
T2 construct: expressed in transfected cells; host or cells: 293 cell line
Protocol: as §1
(d) simultaneously expressing α3 subunit (for the protein sequence, see GenBank accession number NM_000808.3), β3 subunit and γ2 subunit in 293 cell line, forming the GABAA receptor containing α3 subunit;
The inventors used electrophysiological methods to measure the inverse agonist efficacy of the substances to be measured, see the method described in literature (Ballard T M et al., RO4938581, a novel cognitive enhancer acting at GABAA alpha5 subunit-containing receptors. Psychopharmacology (Berl). 2009 January; 202 (1-3): 207-23). […] Many methods can be used by those skilled in the art to evaluate the binding capacity of the ligand of α5-GABAA receptor to the α5-GABAA receptor, including but not limiting to the method above.
Inverse agonist efficacy represents the inhibition percentage of the candidate substance on the current induced by GABA through α5-GABAA receptor=(the current intensity induced by GABA through α5-GABAA receptor with the existence of candidate substance−the current intensity induced by GABA through α5-GABAA receptor without the existence of candidate substance)/the current intensity induced by GABA through α5-GABAA receptor without the existence of candidate substance.

[6] = tested on: brain microvessel endothelial cells co-cultivated with astrocyte; experiment: In vitro blood-brain barrier model (BBBM); type: in vitro ADME
From the text: Through in vitro blood-brain barrier model (BBBM), whether the substance to be measured could effectively pass blood brain barrier was detected. In this experiment, brain microvessl endothelial cells were co-cultivated with astrocyte, and then whether the substance to be measured could effectively pass cellular membrane was detected. For detailed method, please refer to related literature (Culot M et al., An in vitro blood-brain barrier model for high throughput (HTS) toxicological screening. Toxicol In Vitro. 2008 April; 22(3):799-811).

| SMILES | Suppression of neuropathic pain (nociceptive threshold) ([1]; 3 mg/kg) | Suppression of neuropathic pain (nociceptive threshold) ([1]; listed as A5I, 3 mg/kg) | Tolerance on continuous administration [1] | Tolerance on continuous administration ([1]; listed as A5I) | Ki [2] [nM] | Suppression of mechanical pain ([3]; 3 mg/kg intraperitoneal, 7 days after CFA, 0.5-24 hours after administration, listed as A5I, 3 mg/kg) | Toxicity in Phase II clinical trial [4] | Toxicity in Phase II clinical trial ([4]; listed as A5I) | Inverse agonist efficacy, % (α3) [5] [%] | Suppression of neuropathic pain, topical administration ([1]; 100 microliter (1 mg/ml) injected to the feet, 10 days after SNI) | Suppression of neuropathic pain (pain threshold) in rats injected with control siRNA ([1]; oral 3 mg/kg, control siRNA intrathecal, 3 mg/kg) | Suppression of neuropathic pain (pain threshold) in rats injected with siRNA specific to α5 subunit ([1]; oral 3 mg/kg, α5-specific siRNA intrathecal, 3 mg/kg) | Suppression of neuropathic pain (mechanical pain), dose-dependent experiment ([1]; oral 10 mg/kg, 3 mg/kg and 1 mg/kg, 10 to 20 days after SNI, 1 hour after administration) | Suppression of mechanical pain ([3]; oral administration, 7 days after CFA model, 1 hour after administration) | Passing blood brain barrier [6] |
| --- | --- | --- | --- | --- | --- | --- | --- | --- | --- | --- | --- | --- | --- | --- | --- |
| Cc1cc(-c2nnc3c4ccccc4c(OCC4=CC(C)C=N4)nn23)no1 (stereo not drawn) [α5IA] | significantly suppressed neuropathic pain | efficiently suppressed neuropathic pain | did not generate tolerance response | did not produce tolerance | 0.58 | efficiently treat mechanical pain; also recorded: efficiently inhibit inflammatory pain | certain toxic problems | renal toxicity | 4 | – | – | – | – | – | – |
| Cn1ncnc1COc1nn2c(-c3cc(CO)on3)nncc2c1C(C)(C)C [MRK016-M3, (3-(3-tert-butyl-2-((2-methyl-2H-1,2,4-triazol-3-yl)methoxy)pyrazolo [1,5-d][1,2,4]triazin-7-yl)isoxazol-5-yl)methanol] | – | – | – | – | – | – | – | – | −15 | still efficiently suppressed | significantly suppressed neuropathic pain; also recorded: significantly increased the pain threshold | no obvious effect; also recorded: did not significantly increase the nociceptive threshold | significantly suppressed | significantly suppress inflammatory pain; also recorded: significantly suppressed pain | cannot significantly pass blood brain barrier |
